From US20230065368A1, “INHIBITING UBIQUITIN SPECIFIC PEPTIDASE 9X” (FORMA Therapeutics, Inc., priority 2018, published 2023)

Target: USP9X (Homo sapiens, UniProt Q93008)
Test: Biochemical Assay for USP9X Inhibition (Ub-Rh110 fluorescence)
Conditions: Biochemical Assay of Example 1, 25 nM Ub-Rh110, 30 min preincubation, Table 23 additional compounds
Method: Biochemical Assay for USP9X Inhibition
Concentration and incubation times were optimized for the maximal signal-to-background while maintaining initial velocity conditions at a fixed substrate concentration (<<Km). […] To assay plates (pre-stamped with compound) was added 3 μL 2× Enzyme. The enzyme was preincubated for 30 minutes and then treated with 3 μL of 2× Substrate. […] The slope (best fit linear regression) of the five reads was used to normalize for inhibition. For all assays, data are reported as percent inhibition compared with control wells based on the following equation: […], wherein FLU is measured Fluorescence, AveLow is average Fluorescence of no enzyme control (n=64), and AveHigh is average Fluorescence of DMSO control (n=64). IC50 values are determined by curve fitting of the standard 4 parameter logistic fitting algorithm included in the Activity Base software package: IDBS XE Designer Model205. Data are fitted using the Levenburg Marquardt algorithm.

USP9X, sequence (Q93008 whole entry, species assumed): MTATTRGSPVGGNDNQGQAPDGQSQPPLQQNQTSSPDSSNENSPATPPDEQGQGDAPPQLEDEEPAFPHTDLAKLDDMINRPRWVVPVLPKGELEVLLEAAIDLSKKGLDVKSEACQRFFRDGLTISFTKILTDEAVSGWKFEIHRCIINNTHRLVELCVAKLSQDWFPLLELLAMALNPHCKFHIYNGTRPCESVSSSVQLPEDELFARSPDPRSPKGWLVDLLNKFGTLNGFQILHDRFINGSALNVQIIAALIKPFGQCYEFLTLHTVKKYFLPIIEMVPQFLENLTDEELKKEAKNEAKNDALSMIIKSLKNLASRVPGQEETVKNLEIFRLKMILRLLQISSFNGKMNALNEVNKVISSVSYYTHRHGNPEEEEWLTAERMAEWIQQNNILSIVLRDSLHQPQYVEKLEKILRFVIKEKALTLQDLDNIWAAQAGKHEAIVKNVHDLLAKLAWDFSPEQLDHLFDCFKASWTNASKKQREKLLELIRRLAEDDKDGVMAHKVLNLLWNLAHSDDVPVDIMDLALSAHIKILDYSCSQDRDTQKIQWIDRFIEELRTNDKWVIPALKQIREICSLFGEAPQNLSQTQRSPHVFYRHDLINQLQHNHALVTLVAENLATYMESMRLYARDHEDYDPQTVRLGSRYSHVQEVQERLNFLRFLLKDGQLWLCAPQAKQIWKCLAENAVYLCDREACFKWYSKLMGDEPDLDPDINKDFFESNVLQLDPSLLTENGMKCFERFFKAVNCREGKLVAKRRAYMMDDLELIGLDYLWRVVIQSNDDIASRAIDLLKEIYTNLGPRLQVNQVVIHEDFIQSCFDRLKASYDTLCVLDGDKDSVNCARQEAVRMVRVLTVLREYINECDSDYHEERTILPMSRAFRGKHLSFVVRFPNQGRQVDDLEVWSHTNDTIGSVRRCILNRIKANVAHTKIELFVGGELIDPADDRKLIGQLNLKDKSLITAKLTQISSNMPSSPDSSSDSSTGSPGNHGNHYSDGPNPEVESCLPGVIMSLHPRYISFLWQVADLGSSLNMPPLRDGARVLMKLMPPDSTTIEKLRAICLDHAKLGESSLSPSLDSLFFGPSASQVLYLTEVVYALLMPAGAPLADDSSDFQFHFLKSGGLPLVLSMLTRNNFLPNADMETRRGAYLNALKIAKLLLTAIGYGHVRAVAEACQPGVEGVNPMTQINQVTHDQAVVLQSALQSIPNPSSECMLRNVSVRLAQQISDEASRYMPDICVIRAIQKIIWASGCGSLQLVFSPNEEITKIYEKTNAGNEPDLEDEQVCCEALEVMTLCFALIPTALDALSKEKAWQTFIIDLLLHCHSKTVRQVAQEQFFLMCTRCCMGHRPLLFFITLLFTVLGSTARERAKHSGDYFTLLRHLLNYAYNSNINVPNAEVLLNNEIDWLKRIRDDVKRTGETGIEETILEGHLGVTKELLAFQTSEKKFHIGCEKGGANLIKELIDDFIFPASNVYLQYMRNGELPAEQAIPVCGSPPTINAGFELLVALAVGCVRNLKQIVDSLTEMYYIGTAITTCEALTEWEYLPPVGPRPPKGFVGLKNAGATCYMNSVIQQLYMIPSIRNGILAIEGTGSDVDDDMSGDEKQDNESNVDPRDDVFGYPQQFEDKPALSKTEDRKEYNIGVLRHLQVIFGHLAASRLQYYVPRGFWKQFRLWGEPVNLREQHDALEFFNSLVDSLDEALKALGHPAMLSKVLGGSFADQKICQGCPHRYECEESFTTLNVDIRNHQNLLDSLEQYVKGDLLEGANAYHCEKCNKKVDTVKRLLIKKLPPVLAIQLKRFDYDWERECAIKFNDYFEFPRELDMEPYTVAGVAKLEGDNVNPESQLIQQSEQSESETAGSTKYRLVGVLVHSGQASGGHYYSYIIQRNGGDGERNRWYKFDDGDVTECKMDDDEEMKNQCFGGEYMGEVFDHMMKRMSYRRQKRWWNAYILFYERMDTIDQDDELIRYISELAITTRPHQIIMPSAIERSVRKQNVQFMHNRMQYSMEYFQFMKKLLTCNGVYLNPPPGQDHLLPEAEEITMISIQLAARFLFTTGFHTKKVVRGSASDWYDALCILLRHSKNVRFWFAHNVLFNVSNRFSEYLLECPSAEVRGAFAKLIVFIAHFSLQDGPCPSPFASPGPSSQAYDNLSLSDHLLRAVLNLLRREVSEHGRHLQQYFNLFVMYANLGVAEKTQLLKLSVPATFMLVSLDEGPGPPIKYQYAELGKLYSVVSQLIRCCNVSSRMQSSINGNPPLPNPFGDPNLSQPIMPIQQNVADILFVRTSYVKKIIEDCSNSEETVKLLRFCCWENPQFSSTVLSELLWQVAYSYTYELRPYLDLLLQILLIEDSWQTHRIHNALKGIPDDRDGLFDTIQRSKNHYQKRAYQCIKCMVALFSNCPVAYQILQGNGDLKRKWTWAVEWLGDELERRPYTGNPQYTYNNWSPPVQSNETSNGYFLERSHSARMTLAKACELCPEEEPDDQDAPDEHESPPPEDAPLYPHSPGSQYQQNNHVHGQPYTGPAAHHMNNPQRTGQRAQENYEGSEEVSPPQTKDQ

Compound | IC50
O=C([C@@H](CO)c1ccccc1)N1CC2=C(C1)CN(S(=O)(=O)c1cnc3c(c1)OCCO3)C2 [Example C-7] | 200 to 2000 nM
O=C([C@H](CO)c1ccccc1)N1CC2=C(C1)CN(S(=O)(=O)c1cnc3c(c1)OCCO3)C2 [Example C-8] | 2000 to 25000 nM
